Data on one molecule can be found in patent publication US12077503B2, “Substituted cyclic amides and their use as herbicides” (FMC CORPORATION, priority 2015, dated 2024).

Type in all cases: in vivo
The subject of experiment [1] is Kochia (Kochia scoparia). Briefly: Test A preemergence. The note with it: Bassia scoparia, pre-emergence, 240 h, preemergence, read-out: Plant response rating, Kochia. The essentials:
(§1)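 Preemergence soil spray on seeded pots or post-emergence spray on 1–2 leaf plants, in loam–sand blend. Greenhouse ~10 d. Visual rating 0–100 against untreated plants.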

Experiment [2] relates to barnyardgrass (Echinochloa crus-galli). The experiment can be described thus: Test A preemergence. The note with it: Echinochloa crus-galli, pre-emergence, 240 h, preemergence, read-out: Plant response rating, Barnyardgrass. The procedure, abridged:
as §1

For experiment [3], the system named is giant foxtail (Setaria faberii). The experiment can be described thus: Test A preemergence. Particulars: Setaria faberi, pre-emergence, 240 h, preemergence, read-out: Plant response rating, Foxtail, Giant. The procedure, abridged:
as §1

The test system of experiment [4] is pigweed (Amaranthus retroflexus). The experiment can be described thus: Test A preemergence. Particulars: Amaranthus retroflexus, pre-emergence, 240 h, preemergence, read-out: Plant response rating, Pigweed.
Experiment [5] deals with ragweed (common ragweed, Ambrosia elatior). The experiment can be described thus: Test A preemergence. Particulars: Ambrosia artemisiifolia, pre-emergence, 240 h, preemergence, read-out: Plant response rating, Ragweed. The essentials: as §1
Experiment [6] deals with ryegrass, Italian (Italian ryegrass, Lolium multiflorum). The experiment can be described thus: Test A preemergence. The note with it: Lolium multiflorum, pre-emergence, 240 h, preemergence, read-out: Plant response rating, Ryegrass, Italian. The essentials: as §1
The test system of experiment [7] is Galium (catchweed bedstraw, Galium aparine). The experiment can be described thus: Test A postemergence. Particulars: Galium, post-emergence, 240 h, 125 g ai/ha, postemergence; visual injury after approximately 10 d; 0 to 100 scale (0 no effect, 100 complete control); read-out: Plant response rating, Galium. The essentials:
as §1

In experiment [8] the test system is Kochia (Kochia scoparia). Briefly: Test A postemergence. Particulars: Bassia scoparia, post-emergence, 240 h, 125 g ai/ha, postemergence; visual injury after approximately 10 d; 0 to 100 scale (0 no effect, 100 complete control); read-out: Plant response rating, Kochia. The procedure, abridged:
as §1

Experiment [9] deals with giant foxtail (Setaria faberii). The experiment can be described thus: Test A postemergence. The note with it: Setaria faberi, post-emergence, 240 h, 125 g ai/ha, postemergence; visual injury after approximately 10 d; 0 to 100 scale (0 no effect, 100 complete control); read-out: Plant response rating, Foxtail, Giant. The procedure, abridged: as §1
Experiment [10] deals with pigweed (Amaranthus retroflexus). Briefly: Test A postemergence. The note with it: Amaranthus retroflexus, post-emergence, 240 h, 125 g ai/ha, postemergence; visual injury after approximately 10 d; 0 to 100 scale (0 no effect, 100 complete control); read-out: Plant response rating, Pigweed. The procedure, abridged: as §1
For experiment [11], the system named is wheat (Triticum aestivum). Briefly: Test A postemergence. The note with it: Triticum aestivum, post-emergence, 240 h, 125 g ai/ha, postemergence; visual injury after approximately 10 d; 0 to 100 scale (0 no effect, 100 complete control); read-out: Plant response rating, Wheat. The essentials: as §1
Experiment [12] relates to barnyardgrass (Echinochloa crus-galli). The experiment can be described thus: Test B flooded paddy test. Particulars: Echinochloa crus-galli, Flood, 250 g ai/ha; scale of 0 to 100 where 0 is no effect and 100 is complete control; read-out: Barnyardgrass plant response rating. The procedure, abridged:
(§2)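 Visual ratings (0 none to 100 complete control) are relative to untreated plants, taken 13–15 d after treatment in a greenhouse. Test material went straight into floodwater standing 3 cm above the soil, kept constant, on plants at the 2-leaf stage.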

Experiment [13] concerns ducksalad (Heteranthera limosa). The experiment can be described thus: Test B flooded paddy test. Particulars: Heteranthera limosa, Flood, 250 g ai/ha; scale of 0 to 100 where 0 is no effect and 100 is complete control; read-out: Ducksalad plant response rating. The procedure, abridged: as §2
The test system of the next experiment is rice (Oryra sativa). The experiment can be described thus: Test B flooded paddy test. Particulars: Oryza sativa, Flood, 250 g ai/ha; scale of 0 to 100 where 0 is no effect and 100 is complete control; read-out: Rice plant response rating. The procedure, abridged:
as §2

Experiment [14] concerns sedge, umbrella (small-flower umbrella sedge, Cyperus difformis). Briefly: Test B flooded paddy test. Particulars: Cyperus difformis, Flood, 250 g ai/ha; scale of 0 to 100 where 0 is no effect and 100 is complete control; read-out: Sedge, Umbrella plant response rating. The essentials: as §2
The mark [15] stands for this setting: 125 g ai/ha, visual rating after approx. 10 d, 0 to 100 scale where 0 is no effect and 100 is complete control.
[16] abbreviates: 500 g ai/ha, 0 to 100 scale, 0 = no effect, 100 = complete control.

On to `O=C1NC[C@H](c2cc(F)c(F)c(F)c2)[C@H]1C(=O)Nc1ccc(F)c(F)c1F` [Compound 756], for which the pest or weed control at 125 g/ha was found to be 70% in the experiment with Kochia (Kochia scoparia) [1] (setting [15]); 100% in experiment [2] (setting [15]); 100% in [3] (setting [15]); 40% in [4] (setting [15]); 0% in experiment [5] (setting [15]); 30% in [6] (setting [15]). For the same molecule, the pest or weed control at 125 g/ha in [7] was 50%; in the experiment on Kochia (Kochia scoparia) [8], 20%; in [9], 80%; in experiment [10], 0%. Besides, the pest or weed control at 500 g/ha in the experiment with Kochia (Kochia scoparia) [1] (setting [16]) came out at 70%; in experiment [2] (setting [16]) it was 100%; in [3] (setting [16]), 100%; in experiment [4] (setting [16]) it was 70%; in [5] (setting [16]), 30%; in experiment [6] (setting [16]), 70%. Also, in experiment [11], the plant injury at 125 g/ha was 30%. In addition, the pest or weed control at 250 g/ha in experiment [12] was determined as 50%; in experiment [13], 100%; in the experiment with rice (Oryra sativa) it was 0%; in [14], 0%.
